We go through 2 compounds from publication PMC5866837, “Towards a generic physiologically based kinetic model to predict in vivo uterotrophic responses in rats by reverse dosimetry of in vitro estrogenicity data” (Archives of Toxicology, 2017).

For data set [1] the following is noted: rat, oral, read-out: In vivo C max, cited from earlier work.
Data set [2] relates to uterotrophic growth in rats. Description: PBK modelling-based reverse dosimetry of YES assay data and BMD analysis. Also noted: species or system rat. The source says: For each in vitro concentration–response dataset from the three assays, the PBK modelling-based reverse dosimetry approach was used to predict the dose levels that are required to reach concentrations in blood that were applied in these assays. As it is assumed that the fraction unbound (f ub) of the parent compound induces the toxicity, the possible difference in the f ub in the in vitro assay medium and in rat serum was corrected prior to applying reverse dosimetry. The f ub of E2 and BPA were determined for in vitro assay media and rat serum as described below. PBK modelling-based reverse dosimetry. […] Consequently, for reverse dosimetry, the in vitro unbound concentration (C ub, in vitro) was set equal to the unbound C max in blood (C ub, in vivo) to determine the dose that is required to cause an in vivo estrogenic effect. The C ub, in vitro was estimated based on the equation: C ub, in vitro = C in vitro × f ub, in vitro, where C in vitro is the nominal concentration applied in the in vitro assay and f ub, in vitro is the fraction unbound of the chemical in the in vitro assay medium as determined using the RED assay. The C ub, in vivo was estimated based on the equation: C ub, in vivo = C in vivo × f ub, in vivo, where C in vivo is the nominal blood concentration in rat and fub, in vivo is the fub in rat serum. Assuming that for the prediction of in vivo toxicity, the C ub, in vitro is the same as C ub, in vivo, the nominal blood concentration in rat can be described by the following equation: C in vivo = C ub, in vivo/f ub, in vivo = C ub, in vitro/f ub, in vivo = (C in vitro × f ub, in vitro)/fub, in vivo. By calculating with the PBK model which dose is required to reach a C in vivo, an in vitro concentration can be translated into an in vivo dose. Performing this exercise for all the concentrations applied in the in vitro assays, the in vitro concentration–response curves were translated into predicted in vivo dose–response curves. […]

Data set [3] in a line: Rapid equilibrium dialysis (RED), fraction unbound in rat serum. Type of data set: in vitro ADME. Conditions: RED 5 h at 37 °C, read-out: f ub (fraction unbound). Here is the method:
(§1) The assay medium used in the ER-CALUX and the proliferation assay contains 5% FCS, so the RED assay was performed using the assay medium for these two assays and for rat serum. The f ub was determined using the protocol described by Waters et al. ([2008]). The RED device insert has two chambers, a plasma and a buffer chamber. […] After incubating for 5 h at 37 °C at 250 rpm on an orbital shaker, the system reaches equilibrium (van […] et al. [2011]). 25 μL of post-dialysis samples were collected from the plasma and buffer chambers in separate tubes. Simultaneously, 25 μL of corresponding buffer (PBS) was added to the sample taken from the plasma chamber and the same volume of corresponding rat serum or in vitro medium was added to the sample taken from the buffer chamber. Then, 300 μL cold precipitation buffer (90/10 ACN/water) was added to both samples to precipitate the proteins and release the compound. The samples were put on ice for 30 min and subsequently centrifuged for 15 min at 15,000×g (CT 15RE, Hitachi Koki Co., Ltd). Then, the supernatants were collected for UPLC analysis. By determining the compound concentration in each chamber, the fraction unbound can be calculated with the following equation: f ub = concentration in buffer chamber/concentration in plasma chamber (van […] et al. [2011]; Waters et al. [2008]). […]

A further data set deals with human ERs. Also noted: method as in Kolle et al. [2010]; Wang et al. [2014]. Conditions: ref Kolle et al. [2010]; Wang et al. [2014]; cited from earlier work.
In data set [4] the test system is uterus weight in rats. In words: In vivo uterotrophic assay and BMD analysis (PROAST) of its data. Also on record: species or system rat. As to conditions: for BMD (BMD10) / BMDL (BMDL10) / BMDU (BMDU10): PROAST exponential model, BMR 10%, absolute uterus weight; for BMDL (BMDL10) / BMDU (BMDU10): in mg/kg. Here is the method: To that end, a literature research was performed using the search terms uterotrophic assay, rats, oral administration.
Furthermore, benchmark dose (BMD) values derived from the predicted dose–response data were compared with BMD values derived from the dose–response data from the uterotrophic assay as reported in the literature. To that end, BMD modelling was applied on dose–response data using the exponential model for continuous data of the PROAST software from The National Institute for Public Health and the Environment of the Netherlands (RIVM) version 38.9 (Slob [2002]). The benchmark response (BMR) was defined as a 10% increase of response change compared to the control. The predicted dose level with an estimated 10% extra risk obtained is shown as BMD10. The lower and upper limits of the 95% confidence interval on the BMD10 are defined as BMDL10 and BMDU10. In PROAST, BMD values are only reported if the model fit of the data is accepted, so when the software provided BMD values, it was assumed that the data had been adequately modelled. […] For in vivo studies, the absolute uterus weight values were used as input for the response in the continuous model.

On the set-up of data set [5]: method as in Hansch et al. [1995]. Conditions: ref Hansch et al. [1995]; cited from earlier work.
Data set [6] is described as follows: Rapid equilibrium dialysis (RED), fraction unbound in in vitro assay medium. Type of data set: in vitro ADME. Conditions: bovine, assay medium with 5% FCS, RED 5 h at 37 °C, read-out: f ub (fraction unbound). Here is the method: as §1
The subject of data set [7] is uterus weight in rats. Conditions: oral gavage, cited from earlier work.
Setting [8] is: in vivo data of Kanno et al. 2003 (doses in mg/kg bw).
[9] abbreviates: in vivo data of Tinwell and Ashby 2004 (doses in mg/kg bw).
Setting [10] is: in vivo data of Odum et al. 1997 (doses in mg/kg bw).

Read-outs that look alike come from different tables or passages of the source. Marks after values point to notes of the source that are not given here.

As for `CC(C)(c1ccc(O)cc1)c1ccc(O)cc1` [BPA, bisphenol A], the Cmax in data set [1] (10 mg/kg bw, ref Pottenger et al. (2000)) was 175 nM; in data set [1] (100 mg/kg bw, ref Pottenger et al. (2000)) it was 9880 nM. The “Predicted BMDL10 fold higher than BMDL10 of the in vivo data” value in data set [2] (in vivo data from Tinwell and Ashby (2004)) is 4.7 fold. Besides, in data set [2] (in vivo data of Kanno et al. (2003)), the “Predicted BMDL10 fold lower than BMDL10 of the in vivo data” value is 13.4 fold. Also, the results for the fraction unbound at 5 h, 5 µM in data set [3] and in data set [6] were 0.04 ± 0.001 and 0.461 ± 0.035, respectively. The “Higher concentrations required for an estrogenic response in the YES assay than in MCF-7/BOS proliferation and U2OS ER-CALUX assays” value in the data set on human ERs is given as 3 orders of magnitude. Besides, in the data set on uterus weight in rats [4] (Kanno et al. 2003 vs Tinwell and Ashby 2004), the “Fold difference in BMD10 values between the two in vivo studies” value stood at 25.8 fold. The BMD (BMD10) in the data set with uterus weight in rats [4] (setting [8]) stood at 207 mg/kg; with uterus weight in rats [4] (setting [9]), 8.02 mg/kg. The entries for the “BMDL (BMDL10)” value with uterus weight in rats [4] (setting [8]) and in the data set on uterus weight in rats [4] (setting [9]) were 62.66 and 1.00, respectively. Moreover, the figures for the “BMDU (BMDU10)” value with uterus weight in rats [4] (setting [8]) and in the data set on uterus weight in rats [4] (setting [9]) were 516.80 and 37.13, respectively. Also, the “Log P ow” value in data set [5] is 3.3^a. Moreover, the “Mean value of uterus weight” value in the data set with uterus weight in rats [7] (rat (AP), 10 mg/kg bw, ref Tinwell and Ashby 2004) is reported as 23.9 mg; in the data set on uterus weight in rats [7] (rat (AP), 100 mg/kg bw, ref Tinwell and Ashby 2004), 29.0 mg; with uterus weight in rats [7] (rat (AP), 300 mg/kg bw, ref Tinwell and Ashby 2004) it was 38.5 mg; in the data set on uterus weight in rats [7] (rat (AP), 600 mg/kg bw, ref Tinwell and Ashby 2004) it was 41.4 mg; in the data set with uterus weight in rats [7] (rat (AP), 800 mg/kg bw, ref Tinwell and Ashby 2004) it was 59.0 mg; in the data set on uterus weight in rats [7] (rat (Sprague–Dawley), 60 mg/kg bw, ref Kanno et al. 2003), 26.8 mg. Also, the “Mean value of uterus weight” value is given as 30.1 mg in the data set on uterus weight in rats [7] (rat (Sprague–Dawley), 200 mg/kg bw, ref Kanno et al. 2003); 30.4 mg in the data set with uterus weight in rats [7] (rat (Sprague–Dawley), 375 mg/kg bw, ref Kanno et al. 2003); 37.0 mg in the data set on uterus weight in rats [7] (rat (Sprague–Dawley), 600 mg/kg bw, ref Kanno et al. 2003); 44.1 mg in the data set on uterus weight in rats [7] (rat (Sprague–Dawley), 1000 mg/kg bw, ref Kanno et al. 2003).

`C[C@]12CC[C@@H]3c4ccc(O)cc4CC[C@H]3[C@@H]1CC[C@@H]2O` [E2, 17β-estradiol]: the Cmax was 0.6 nM in data set [1] (0.02 mg/kg bw, ref Bawarshi-Nassar et al. (1989)) and 2.7 nM in data set [1] (0.08 mg/kg bw, ref Bawarshi-Nassar et al. (1989)). Moreover, the “Predicted BMDL10 lower than that of BPA” value in data set [2] (YES assay-based prediction) is on record as 4 orders of magnitude. For the same compound, the fraction unbound at 5 h, 5 µM amounted to 0.05 ± 0.005 in data set [3] and 0.628 ± 0.012 in data set [6]. Also, in the data set on human ERs, the “Higher concentrations required for an estrogenic response in the YES assay than in MCF-7/BOS proliferation and U2OS ER-CALUX assays” value was 2 orders of magnitude. The same compound had a BMD (BMD10) with uterus weight in rats [4] (setting [10]) of 0.0134 mg/kg. Besides, in the data set on uterus weight in rats [4] (setting [10]), the “BMDL (BMDL10)” value is recorded as 0.002915. Besides, in the data set with uterus weight in rats [4] (setting [10]), the “BMDU (BMDU10)” value amounted to 0.03371. Also, the “Log P ow” value in data set [5] is 4.0^a. The “Mean value of uterus weight” value with uterus weight in rats [7] (rat (AP), 0.01 mg/kg bw, ref Odum et al., 1997) is 37.5 mg; in the data set with uterus weight in rats [7] (rat (AP), 0.02 mg/kg bw, ref Odum et al., 1997), 39 mg; with uterus weight in rats [7] (rat (AP), 0.04 mg/kg bw, ref Odum et al., 1997) it was 38.3 mg; in the data set with uterus weight in rats [7] (rat (AP), 0.10 mg/kg bw, ref Odum et al., 1997), 68.1 mg; with uterus weight in rats [7] (rat (AP), 0.20 mg/kg bw, ref Odum et al., 1997) it was 70.9 mg; in the data set on uterus weight in rats [7] (rat (AP), 0.40 mg/kg bw, ref Odum et al., 1997), 101.7 mg.
